Measurements: PubChem BioAssay (NCI)
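Growth conditions: 96-well plates. Treatment: test compound, 48 hours, 5 concentrations. Analysis: linear interpolation between bracketing concentrations; unreached endpoints set to highest concentration. TGI denotes the concentration required for complete inhibition of growth.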

Columns and labels:
Test in all cases: DTP human tumour cell line panel, 48 h
RPMI-8226 leukemia = system: RPMI-8226 leukemia
KM12 colon = system: KM12 colon
SF-539 CNS = system: SF-539 CNS
HOP-92 NSCLC = system: HOP-92 NSCLC
SNB-75 CNS = system: SNB-75 CNS
HOP-18 NSCLC = system: HOP-18 NSCLC
SN12C renal = system: SN12C renal
NCI-H522 lung = system: NCI-H522 lung
OVCAR-3 ovarian = system: OVCAR-3 ovarian
OVCAR-4 ovarian = system: OVCAR-4 ovarian
SK-MEL-5 melanoma = system: SK-MEL-5 melanoma
NCI-H460 lung = system: NCI-H460 lung
786-0 renal = system: 786-0 renal
XF 498 CNS = system: XF 498 CNS
SK-MEL-2 melanoma = system: SK-MEL-2 melanoma
RXF 393 renal = system: RXF 393 renal
HCC-2998 colon = system: HCC-2998 colon
SW-620 colon = system: SW-620 colon
TK-10 renal = system: TK-10 renal
DMS 114 small cell lung = system: DMS 114 small cell lung
HT29 colon = system: HT29 colon
SK-MEL-28 melanoma = system: SK-MEL-28 melanoma
LOX IMVI melanoma = system: LOX IMVI melanoma
SNB-19 CNS = system: SNB-19 CNS
K-562 leukemia = system: K-562 leukemia
NCI-H23 lung = system: NCI-H23 lung
SF-295 CNS = system: SF-295 CNS
RXF-631 renal = system: RXF-631 renal
EKVX NSCLC = system: EKVX NSCLC
ACHN renal = system: ACHN renal
HL-60(TB) leukemia = system: HL-60(TB) leukemia
KM20L2 colon = system: KM20L2 colon
HOP-62 NSCLC = system: HOP-62 NSCLC
OVCAR-8 ovarian = system: OVCAR-8 ovarian
UO-31 renal = system: UO-31 renal
HCT-116 colon = system: HCT-116 colon
DMS 273 small cell lung = system: DMS 273 small cell lung
M19-MEL melanoma = system: M19-MEL melanoma
MALME-3M melanoma = system: MALME-3M melanoma
SK-OV-3 ovarian = system: SK-OV-3 ovarian
M14 melanoma = system: M14 melanoma
UACC-257 melanoma = system: UACC-257 melanoma
SNB-78 CNS = system: SNB-78 CNS
A498 renal = system: A498 renal
CCRF-CEM leukemia = system: CCRF-CEM leukemia
MOLT-4 leukemia = system: MOLT-4 leukemia
A549 NSCLC = system: A549 NSCLC
SF-268 CNS = system: SF-268 CNS
NCI-H226 lung = system: NCI-H226 lung
COLO 205 colon = system: COLO 205 colon
IGROV1 ovarian = system: IGROV1 ovarian
UACC-62 melanoma = system: UACC-62 melanoma
U251 CNS = system: U251 CNS
HCT-15 colon = system: HCT-15 colon
CAKI-1 renal = system: CAKI-1 renal
DLD-1 colon = system: DLD-1 colon
LXFL 529 NSCLC = system: LXFL 529 NSCLC
SR leukemia = system: SR leukemia

Measured: TGI

CC#C[C@@]1(O)CCCCC1O (stereo not given in full)
not listed: CAKI-1 renal | DLD-1 colon | LXFL 529 NSCLC | SR leukemia
> 100 µM: all other assays above

Cn1ccnc1Cn1cc(-c2cccc(-c3cn[nH]c3)c2)cn1
99.8 µM: EKVX NSCLC
49 µM: UACC-62 melanoma
41.9 µM: SK-OV-3 ovarian
not listed: SF-539 CNS | HOP-18 NSCLC | HT29 colon | NCI-H23 lung | MALME-3M melanoma | NCI-H226 lung | IGROV1 ovarian
> 100 µM: all other assays above
